Assay results taken from ChEMBL document CHEMBL2073828, “The breast cancer resistance protein (Bcrp1/Abcg2) restricts exposure to the dietary carcinogen 2-amino-1-methyl-6-phenylimidazo[4,5-b]pyridine” (Cancer Res, 2003).

Legend:
[1] = molecular target: T1, Broad substrate specificity ATP-binding cassette transporter ABCG2 (Mus musculus, UniProt Q7TMS5); assay: TP_TRANSPORTER: transcellular transport in MDCKII; assay type: functional, cell-based; conditions: dog, mdck-ii
T1 sequence (Q7TMS5 whole entry): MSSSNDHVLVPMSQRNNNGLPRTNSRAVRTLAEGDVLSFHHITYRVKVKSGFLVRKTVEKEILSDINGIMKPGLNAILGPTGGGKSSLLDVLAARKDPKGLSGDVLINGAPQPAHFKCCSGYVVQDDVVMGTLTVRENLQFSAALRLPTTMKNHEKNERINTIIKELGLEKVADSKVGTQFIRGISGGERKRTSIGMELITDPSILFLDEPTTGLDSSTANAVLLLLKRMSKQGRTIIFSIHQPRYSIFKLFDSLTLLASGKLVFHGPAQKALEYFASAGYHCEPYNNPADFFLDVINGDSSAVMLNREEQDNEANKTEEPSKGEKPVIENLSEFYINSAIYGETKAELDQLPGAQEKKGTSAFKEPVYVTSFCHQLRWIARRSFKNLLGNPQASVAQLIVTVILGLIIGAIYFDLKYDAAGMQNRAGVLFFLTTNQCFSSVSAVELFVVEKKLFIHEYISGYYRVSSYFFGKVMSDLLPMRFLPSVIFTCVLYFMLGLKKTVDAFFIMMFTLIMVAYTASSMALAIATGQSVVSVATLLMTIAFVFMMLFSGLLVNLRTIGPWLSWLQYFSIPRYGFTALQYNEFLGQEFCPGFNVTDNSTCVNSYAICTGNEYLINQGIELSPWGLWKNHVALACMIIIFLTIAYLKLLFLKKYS

[2] = molecular target: T1, Broad substrate specificity ATP-binding cassette transporter ABCG2; assay: TP_TRANSPORTER: intestinal excretion; assay type: functional, organism-based; conditions: in vivo
[3] = molecular target: T1, Broad substrate specificity ATP-binding cassette transporter ABCG2; assay: TP_TRANSPORTER: biliary excretion; assay type: functional, organism-based, Bile; conditions: in vivo

Measured: Activity

Cn1c(N)nc2ncc(-c3ccccc3)cc21 [2-AMINO-1-METHYL-6- PHENYLIMIDAZO[4,5- B]PYRIDINE]
substrate []: all assays above
